The results in this text go back to publication PMC9154803, “Synthesis, X-ray diffraction analysis, quantum chemical studies and α-amylase inhibition of probenecid derived S-alkylphthalimide-oxadiazole-benzenesulfonamide hybrids” (Journal of Enzyme Inhibition and Medicinal Chemistry, 2022).

In brackets after ≈: the same amount, converted by molar mass.

In this assay the target is T1, α-amylase.
T1 construct: gene AMY2
As to the kind of experiment: DNS starch hydrolysis assay, absorbance at […] nm. Format: biochemical.

As to `CCCN(CCC)S(=O)(=O)c1ccc(-c2nnc(SCCCCN3C(=O)c4ccccc4C3=O)o2)cc1` [compound 2, 4–(5-(4–(1,3-Dioxoisoindolin-2-yl)butylthio)-1,3,4-oxadiazol-2-yl)-N,N-dipropylbenzenesulfonamide], the “IC50 value” worked out at 76.92 ± 0.19 mg/L (≈ 142 µM).
Under `CCCN(CCC)S(=O)(=O)c1ccc(-c2nnc(SCCCN3C(=O)c4ccccc4C3=O)o2)cc1` [compound 1, 4–(5-(3–(1,3-Dioxoisoindolin-2-yl)propylthio)-1,3,4-oxadiazol-2-yl)-N,N-dipropylbenzenesulfonamide] stands 92.23 ± 0.23 mg/L (≈ 174 µM).
